Assay results as given in article PMC4137035 (Bioorganic & medicinal chemistry letters, 2014).
≈ marks a conversion by molar mass, not a printed value.

Assays:
[1] = Aqueous solubility measured by HPLC; assay type: physicochemical
wild-type HIV-1 (IIIB) = assay type: cell-based; conditions: selective index, CC50 vs EC50 IIIB
[2] = aqueous medium at pH 7.4 (buffer not named), pH 7.4

| Structure (SMILES) | solubility [1, 2] [µg/mL] | SI (wild-type HIV-1 (IIIB)) | solubility ([1]; aqueous medium at pH 2.0 (buffer not named), pH 2) [µg/mL] |
| --- | --- | --- | --- |
| Cc1cc(C#N)cc(C)c1Oc1cc(Nc2ccc(C#N)cc2)c(N)cc1CO [7a] | < 1 | 114,019 | – |
| Cc1cc(C#N)cc(C)c1Oc1cc(Nc2ccc(C#N)cc2)c(N)cc1CNC1CC1 [7c] | – | 1,142 | 285 (≈ 673 µM) |
| Cc1cc(C#N)cc(C)c1Oc1cc(Nc2ccc(C#N)cc2)c(N)cc1CNCCCO [7d] | – | 2,475 | – |
| COCc1cc(N)c(Nc2ccc(C#N)cc2)cc1Oc1c(C)cc(C#N)cc1C [7g] | < 1 | – | – |
| CC(=O)OCc1cc(N)c(Nc2ccc(C#N)cc2)cc1Oc1c(C)cc(C#N)cc1C [7h] | < 1 | – | – |
| COCc1cc(N)c(Nc2ccc(C#N)cc2)cc1Oc1c(C)cc(/C=C/C#N)cc1C [11a] | < 1 | 8,763 | – |
| CC(=O)OCc1cc(N)c(Nc2ccc(C#N)cc2)cc1Oc1c(C)cc(/C=C/C#N)cc1C [11b] | < 1 | 117,439 | – |
| COCc1cc(N)c(Nc2ccc(C#N)cc2)cc1Oc1c(C)cc(CCC#N)cc1C [12a] | < 1 | >61,538 | – |
| CC(=O)OCc1cc(N)c(Nc2ccc(C#N)cc2)cc1Oc1c(C)cc(CCC#N)cc1C [12b] | < 1 | 46,667 | – |
